{
  "source": "patent US20250361284A1",
  "about": "“TRANSPOSASE FUSION PROTEINS FOR USE IN CELL AND GENE THERAPY” (JULIUS-MAXIMILIANS-UNIVERSITÄT WÜRZBURG, priority 2022, published 2025)",
  "key": {"[1]": {"tested_on": "K562/CD19 target cells", "assay": "Bioluminescence-based cytolytic activity of CD8+ CD19 CAR T cells", "format": "cell-based, human", "details": "TMP 1000 nM", "method": "(5C) Specific cytolytic activity of CD8+ CD19 CAR-T cells against K562/CD19 target cells. Cytolytic activity of CD8+ CD19-CAR T cells was evaluated by co-culture with K562/CD19 or K562 target cells using a bioluminescence-based assay. The assay was setup with effector T cells (CD8+ CD19-CAR T cells) at various effector/target (E:T) ratios in 96 well flat bottom plates. Luminescence intensities were recorded at specific time points (1, 3, 5, 24 hours) using a luminometer. Specific lysis was calculated using the standard formula. Data shown are from one representative experiment.\n(5D) Specific cytolytic activity of CD8+ CD19 CAR-T cells engineered with dd-SB100X fusion transposase vs. wild type SB100X transposase. […] Data was analyzed by unpaired t-test.\nAnonymous healthy donor blood samples were received upon written consent to participate in research protocols approved by the Institutional Review Board of the Universitätsklinikum Würzburg (UKW). Blood samples were processed for T cells isolation as published earlier (Querques et al., 2019). Briefly, Peripheral blood mononuclear cells (PBMCs) were isolated by density centrifugation with Biocoll separating solution (Biochrom). Both CD4+ and CD8+ T cells were sorted by negative isolation approach using microbeads and magnetic associated cell sorting (MACS, Miltenyi) methods as described by the manufacturer. […]"}, "[2]": {"tested_on": "human CD4+ T cells", "assay": "Gene transfer (EGFRt+ T cells, flow cytometry) with degron-SB100X in CD4+ T cells", "format": "cell-based", "details": "for gene transfer rate (EGFRt+ T cells): day 7 post-nucleofection, n=1", "method": "(1E) Testing the activity of IKZF3 zinc finger-based degron-SB100X fusion-transposase in human CD4+ T cells. For each condition, 2 million CD3/CD28 activated CD4+ T cells were nucleofected with minicircle DNA encoding a CD19-CAR_EGFRt SB transposon, and plasmid DNA encoding either the wild type SB transposase (SB100X) or the SB fusion-transposase (degron-SB100X). Cells were cultured either in the presence of Pomalidomide (P; 10 μM) or DMSO (D) at the time of nucleofection. At 7 days post-nucleofection, flow cytometric analysis was performed to determine the percentage of T cells that expresses the EGFRt reporter that was encoded in cis with the CD19-CAR. Top panel: Dot plots showing EGFRt expression on day 7 post-nucleofection. Bottom panel: Bar graph showing the percentage of EGFRt+ T cells on day 7 post-nucleofection (n=1).\nAnonymous healthy donor blood samples were received upon written consent to participate in research protocols approved by the Institutional Review Board of the Universitätsklinikum Würzburg (UKW). Blood samples were processed for T cells isolation as published earlier (Querques et al., 2019). Briefly, Peripheral blood mononuclear cells (PBMCs) were isolated by density centrifugation with Biocoll separating solution (Biochrom). Both CD4+ and CD8+ T cells were sorted by negative isolation approach using microbeads and magnetic associated cell sorting (MACS, Miltenyi) methods as described by the manufacturer. The isolated CD4+ and CD8+ T cells were cultured in T cell medium (RPMI-1640 with 10% (vol/vol) human serum, 2 mM L-glutamine, 100 U ml-1 penicillin-streptomycin) containing IL-2 (50 units per mL) and activated by anti-CD3/CD28 bead stimulation (Thermo Fisher). Two days post-activation, approximately 2 million T cells were nucleofected with vectors (1 μg of CD19 CAR (EGFRt)-encoding transposon as plasmid or minicircle DNA; 1 μg of mRNA encoding SB transposase) or 10 μg of hsSB protein (Querques et al., 2019) using a 4D Nucleofector (Lonza) as per the manufacturer's instructions. […]"}},
  "data": [
    {"compound": "COc1cc(Cc2cnc(N)nc2N)cc(OC)c1OC", "note": "[TMP, trimethoprim]", "values": [
      {"measurement": "effect of TMP treatment on subsequent function of CAR T cells", "setting": "[1]", "value": "no adverse effects"}
    ]},
    {"compound": "Nc1cccc2c1C(=O)N(C1CCC(=O)NC1=O)C2=O", "note": "(stereo not shown) [pomalidomide, reference compound]", "values": [
      {"measurement": "effect of pomalidomide on activity of wild type SB100X (lacking the degron tag)", "setting": "[2]; pomalidomide 10 μM vs DMSO", "value": "interfered with the activity of wild type SB100X"}
    ]},
    {"compound": "degron-SB100X: IKZF3 zinc finger degron tag fused via linker to N-terminus of SB100X transposase; SEQ ID NO: 3", "values": [
      {"measurement": "gene transfer rate (EGFRt+ T cells)", "setting": "[2]; DMSO", "value": "~46.4", "unit": "%"},
      {"measurement": "gene transfer rate (EGFRt+ T cells)", "setting": "[2]; pomalidomide 10 μM", "value": "~1.74", "unit": "%"}
    ]}
  ]
}
